# Target: USP14 (Homo sapiens, UniProt P54578)
# Assay: USP14 inhibition (methodology of B. H. Lee et al. Nature 2010)
# Assay type: biochemical
# Conditions: average value from three experimental determinations
# Experimental: Known USP14 inhibitor IU1 (1-(1-(4-fluorophenyl)-2,5-dimethyl-1H-pyrrol-3-yl)-2-(pyrrolidin-1-yl)ethanone; B. H. Lee et al. Nature 2010, 467 (9), 179) was used as a comparative reference agent. The IC50 values in the Table below represent the average value from three experimental determinations. In the table below, “A” represents an IC50 of 0 to 5 uM, “B” represents an IC50 of 5 to 10 uM, and “C” represents and IC50 of greater than 10 uM.
# USP14, sequence (P54578 whole entry): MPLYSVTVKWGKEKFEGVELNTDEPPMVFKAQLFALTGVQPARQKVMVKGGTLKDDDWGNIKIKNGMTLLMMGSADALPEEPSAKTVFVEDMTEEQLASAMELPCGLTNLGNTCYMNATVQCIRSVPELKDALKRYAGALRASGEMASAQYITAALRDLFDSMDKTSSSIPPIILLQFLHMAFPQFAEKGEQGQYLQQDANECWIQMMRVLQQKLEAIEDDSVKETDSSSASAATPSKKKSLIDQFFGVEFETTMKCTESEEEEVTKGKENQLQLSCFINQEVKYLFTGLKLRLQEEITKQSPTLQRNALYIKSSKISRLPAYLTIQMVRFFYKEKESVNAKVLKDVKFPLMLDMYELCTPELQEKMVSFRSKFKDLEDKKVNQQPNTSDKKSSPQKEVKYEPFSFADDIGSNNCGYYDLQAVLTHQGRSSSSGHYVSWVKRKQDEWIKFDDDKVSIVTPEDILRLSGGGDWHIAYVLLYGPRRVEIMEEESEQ
# USP14, sequence (Q13200 whole entry partner): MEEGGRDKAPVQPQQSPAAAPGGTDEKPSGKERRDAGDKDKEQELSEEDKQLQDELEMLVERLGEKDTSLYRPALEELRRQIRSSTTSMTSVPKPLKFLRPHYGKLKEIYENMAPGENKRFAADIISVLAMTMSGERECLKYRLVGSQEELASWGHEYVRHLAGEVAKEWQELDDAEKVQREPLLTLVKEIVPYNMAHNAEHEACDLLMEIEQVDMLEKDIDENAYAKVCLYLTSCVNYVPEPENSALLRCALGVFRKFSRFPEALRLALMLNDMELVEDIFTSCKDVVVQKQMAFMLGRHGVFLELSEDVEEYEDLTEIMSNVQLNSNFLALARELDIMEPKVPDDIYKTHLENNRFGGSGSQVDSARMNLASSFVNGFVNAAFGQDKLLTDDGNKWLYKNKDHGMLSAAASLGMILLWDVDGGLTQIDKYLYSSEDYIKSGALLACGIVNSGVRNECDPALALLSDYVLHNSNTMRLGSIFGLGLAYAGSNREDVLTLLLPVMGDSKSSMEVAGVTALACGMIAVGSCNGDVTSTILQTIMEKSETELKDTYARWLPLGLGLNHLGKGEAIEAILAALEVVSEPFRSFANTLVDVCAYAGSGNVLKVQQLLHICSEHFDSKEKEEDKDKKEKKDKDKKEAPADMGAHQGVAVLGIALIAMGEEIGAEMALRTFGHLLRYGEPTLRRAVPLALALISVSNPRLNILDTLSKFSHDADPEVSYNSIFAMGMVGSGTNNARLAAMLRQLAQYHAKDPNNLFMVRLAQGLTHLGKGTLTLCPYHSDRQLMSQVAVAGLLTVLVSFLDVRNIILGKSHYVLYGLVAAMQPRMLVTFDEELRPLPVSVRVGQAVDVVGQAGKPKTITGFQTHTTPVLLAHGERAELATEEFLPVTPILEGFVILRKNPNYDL
# USP14, sequence (P35998 whole entry partner): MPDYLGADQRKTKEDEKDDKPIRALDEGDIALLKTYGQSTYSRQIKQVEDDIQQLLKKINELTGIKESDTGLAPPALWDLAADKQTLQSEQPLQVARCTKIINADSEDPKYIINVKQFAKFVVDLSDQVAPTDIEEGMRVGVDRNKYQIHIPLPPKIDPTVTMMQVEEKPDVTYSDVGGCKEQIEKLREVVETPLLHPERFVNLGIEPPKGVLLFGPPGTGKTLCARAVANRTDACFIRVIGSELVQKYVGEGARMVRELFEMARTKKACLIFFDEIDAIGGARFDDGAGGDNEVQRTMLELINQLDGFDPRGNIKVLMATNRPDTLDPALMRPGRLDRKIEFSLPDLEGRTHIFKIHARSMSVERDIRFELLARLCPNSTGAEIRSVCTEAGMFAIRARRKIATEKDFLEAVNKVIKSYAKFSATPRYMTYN
row,IC50 [µM],SMILES
1,> 10,"Cc1cc(C(=O)C(F)F)c(C)n1-c1ccc(Cl)cc1 [Compound A3, 1-(1-(4-chlorophenyl)-2,5-dimethyl-1H-pyrrol-3-yl)-2,2-difluoroethanone]"
2,> 10,"Cc1c(C(=O)CN2CCCC2)nnn1-c1ccc(F)cc1 [Compound A30, 1-(1-(4-fluorophenyl)-5-methyl-1H-1,2,3-triazol-4-yl)-2-(pyrrolidin-1-yl)ethanone]"
3,> 10,"Cc1cc(C(=O)Cn2cccc2)c(C)n1-c1ccc(Cl)cc1 [Compound A9, 1-[1-(4-Chloro-phenyl)-2,5-dimethyl-1H-pyrrol-3-yl]-2-pyrrol-1-yl-ethanone]"
4,> 10,"Cc1sc(-c2ccc(Cl)cc2)cc1C(=O)CN1CCC(O)CC1 [Compound A29, 1-(5-(4-chlorophenyl)-2-methylthiophen-3-yl)-2-(4-hydroxypiperidin-1-yl)ethanone]"
5,< 5,"Cc1nn(-c2ccc(Cl)cc2)c(C)c1C(=O)CN1CCCC1 [Compound A19, 1-[1-(4-Chloro-phenyl)-3,5-dimethyl-1H-pyrazol-4-yl]-2-Pyrrolidine-1-yl-ethanone]"
6,> 10,"Cc1cc(C(=O)CCl)c(C)n1-c1ccc(Cl)cc1 [Compound A8, 2-chloro-1-(1-(4-chlorophenyl)-2,5-dimethyl-1H-pyrrol-3-yl)ethanone]"
7,> 10,"Cc1nn(-c2ccc(Cl)cc2)c(C)c1C(=O)CN(C)C1CC1 [Compound A20, 1-[1-(4-Chloro-phenyl)-3,5-dimethyl-1H-pyrazol-4-yl]-2-(Cyclopropyl-methyl-amino)-ethanone]"
8,> 10,"Cc1cc(C(=O)CC(F)(F)F)c(C)n1-c1ccc(Cl)cc1 [Compound A4, 1-(1-(4-chlorophenyl)-2,5-dimethyl-1H-pyrrol-3-yl)-3,3,3-trifluoropropan-1-one]"
9,> 10,Cc1cc(C#N)c(C)n1-c1ccc(Cl)cc1 [Compound A47]
10,> 10,CNC(=O)C1CCN(C(C)C(=O)c2cc(C)n(-c3ccc(Cl)cc3)c2C)CC1 (stereo not shown) [Compound A45]

# Continued, molecule first:
row,SMILES,IC50 [µM]
1,"Cc1cc(C(=O)CC2CCCC2)c(C)n1-c1ccc(Cl)cc1 [Compound A1, 1-[1-(4-Chloro-phenyl)-2,5-dimethyl-1H-pyrrol-3-yl]-2-cyclopentyl-ethanone]",> 10
2,"Cc1oc(-c2ccc(Cl)cc2)nc1C(=O)CN1CCCCC1 [Compound A25, 1-[2-(4-Chloro-phenyl)-5-methyl-oxazol-4-yl]-2-piperidin-1-yl-ethanone]",> 10
3,"Cc1cc(C(=O)CC2CCCCC2)c(C)n1-c1ccc(Cl)cc1 [Compound A2, 1-[1-(4-Chloro-phenyl)-2,5-dimethyl-1H-pyrrol-3-yl]-2cyclohexyl-ethanone]",> 10
4,"Cc1cc(C(=O)C(=O)O)c(C)n1-c1ccc(Cl)cc1 [Compound A5, 2-(1-(4-chlorophenyl)-2,5-dimethyl-1H-pyrrol-3-yl)-2-oxoacetic acid]",> 10
5,"Cc1cc(C(=O)CN2CCCC2)c(C)n1C [Compound A12, 2-(pyrrolidin-1-yl)-1-(1,2,5-trimethyl-1H-pyrrol-3-yl)ethanone]",> 10
6,"Cc1nn(-c2ccc(Cl)cc2)c(C)c1C(=O)CC1CCCCC1 [Compound A21, 1-(1-(4-chlorophenyl)-3,5-dimethyl-1H-pyrazol-4-yl)-2-cyclohexylethanone]",> 10
7,Cc1cc(C(=O)C(C)N2CCC(C(N)=O)CC2)c(C)n1-c1ccc(Cl)cc1 (stereo not shown) [Compound A44],> 10
8,"Cc1cc(C(=O)CN2CCCCC2)c(C)n1C [Compound A11, 2-(piperidin-1-yl)-1-(1,2,5-trimethyl-1H-pyrrol-3-yl)ethanone]",> 10
9,"CN(CC(=O)c1cnn(-c2ccc(Cl)cc2)c1)C1CC1 [Compound A24, 1-[1-(4-Chloro-phenyl)-1H-pyrazol-4-yl]-2-(cyclopropyl-methyl-amino)-ethanone]",> 10
10,"O=C(CN1CCCCC1)N1CCN(c2ccc(F)cc2)CC1 [Compound A32, 1-(4-(4-fluorophenyl)piperazin-1-yl)-2-(piperidin-1-yl)ethanone]",> 10
11,"Cc1sc(-c2ccc(Cl)cc2)cc1C(=O)CN1CCCCC1 [Compound A27, 1-(5-(4-chlorophenyl)-2-methylthiophen-3-yl)-2-(piperidin-1-yl)ethanone]",> 10
12,"Cc1cc(C(=O)C(=O)N2CCC(F)CC2)c(C)n1-c1ccc(Cl)cc1 [Compound A7, 1-(1-(4-chlorophenyl)-2,5-dimethyl-1H-pyrrol-3-yl)-2-(4-fluoropiperidin-1-yl)ethane-1,2-dione]",> 10
13,"O=C(CN1CCCC1)c1cnn(-c2ccc(Cl)cc2)c1 [Compound A23, 1-[1-(4-Chloro-phenyl)-1H-pyrazol-4-yl]-2-pyrrolidin-1-yl-ethanone]",> 10
14,"Cc1sc(-c2ccc(Cl)cc2)cc1C(=O)CN1CCC(F)CC1 [Compound A28, 1-(5-(4-chlorophenyl)-2-methylthiophen-3-yl)-2-(4-fluoropiperidin-1-yl)ethanone]",> 10
15,O=C(CN1CCCCC1)c1cc(-c2ccc(Cl)cc2)ns1 [Compound A26],> 10
16,COC(=O)C1CCN(C(C)C(=O)c2cc(C)n(-c3ccc(Cl)cc3)c2C)CC1 (stereo not shown) [Compound A46],> 10
17,"Cc1cc(C(=O)Cn2ccnc2)c(C)n1-c1ccc(Cl)cc1 [Compound A10, 1-[1-(4-Chloro-phenyl)-2,5-dimethyl-1H-pyrrol-3-yl]-2-imidazol-1-yl-ethanone]",> 10
18,"Cc1nn(-c2ccc(Cl)cc2)c(C)c1C(=O)CN1CCCCC1 [Compound A18, 1-[1-(4-Chloro-phenyl)-3,5-dimethyl-1H-pyrazol-4-yl]-2-piperidin-1-yl-ethanone]",5 to 10
19,"Cc1c(C(=O)CN2CCCC2)cnn1-c1ccc(Cl)cc1 [Compound A14, 1-[1-(4-Chloro-phenyl)-5-methyl-1H-pyrazol-4-yl]-2-pyrrolidin-1-yl-ethanone]",< 5
20,"O=C(CN1CCCC1)N1CCN(c2ccc(Cl)cc2)CC1 [Compound A31, 1-(4-(4-chlorophenyl)piperazin-1-yl)-2-(pyrrolidin-1-yl)ethanone]",> 10
21,"O=C(CN1CCCCC1)c1cnn(-c2ccc(Cl)cc2)c1 [Compound A22, 1-[1-(4-Chloro-phenyl)-1H-pyrazol-4-yl]-2-piperidin-1-yl-ethanone]",> 10

# — patent US12180189B2, “Proteostasis regulators” (Kineta, Inc., priority 2011, dated 2024)
